From patent US4652551A, “Renin inhibiting compounds” (Abbott Laboratories, priority 1985, dated 1987)

Biological target: T1, human renal renin (Homo sapiens, UniProt P00797)
T1 construct: human renal renin, free from acid proteolytic activity; from tissue; host or cells: human kidney (from the word 'renal')
T1 sequence (P00797 67-406): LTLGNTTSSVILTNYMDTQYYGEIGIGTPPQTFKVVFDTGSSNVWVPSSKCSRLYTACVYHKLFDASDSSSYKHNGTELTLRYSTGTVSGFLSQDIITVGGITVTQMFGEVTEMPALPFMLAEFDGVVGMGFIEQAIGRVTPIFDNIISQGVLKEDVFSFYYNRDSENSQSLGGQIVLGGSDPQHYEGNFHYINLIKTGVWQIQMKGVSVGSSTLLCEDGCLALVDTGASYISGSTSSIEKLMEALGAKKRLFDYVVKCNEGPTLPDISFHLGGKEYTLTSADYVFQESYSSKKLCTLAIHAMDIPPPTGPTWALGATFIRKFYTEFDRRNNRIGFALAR
Experiment: In vitro inhibition of human renal renin (angiotensin I formed, measured by radioimmunoassay)
Format: biochemical
Conditions: at 10^-5 M compound; human renin substrate (angiotensinogen), 37° C., pH 6.0
Protocol: At the end of the incubation, the amount of angiotensin I formed is measured by radioimmunoassay and the present inhibition of renin is calculated.

| Structure (SMILES) | Inhibition |
| --- | --- |
| CC(C)CC(NC(=O)C(C)NC(=O)C(Cc1ccccc1)NC(=O)OC(C)(C)C)C(O)CCc1ccccc1 (stereo not drawn) [Example 1C, Boc-Phe-Ala amide of 4-amino-3-hydroxy-6-methyl-1-phenylheptane] | 35% |
| C=CCC(O)C(CC(C)C)NC(=O)C(C)NC(=O)C(Cc1ccccc1)NC(=O)OC(C)(C)C (stereo not drawn) [Example 4C, Boc-Phe-Ala amide of 5-amino-4-hydroxy-7-methyl-1-octene] | 48% |
| C=CC(C)(C)C(O)C(CC(C)C)NC(=O)C(C)NC(=O)C(Cc1ccccc1)NC(=O)OC(C)(C)C (stereo not drawn) [Example 5C, Boc-Phe-Ala amide of 5-amino-4-hyroxy-3,3,7-trimethyl-1-octene] | 7% |

More lines, now with the values ahead:

| Inhibition | Structure (SMILES) |
| --- | --- |
| 85% | CC(C)CCC(O)C(CC(C)C)NC(=O)C(C)NC(=O)C(Cc1ccccc1)NC(=O)OC(C)(C)C (stereo not drawn) [Example 2C, Boc-Phe-Ala amide of 4-amino-2,8-dimethyl-5-hydroxynonane] |
| 89% | CC(C)CCC(O)C(CC(C)C)NC(=O)C(Cc1cnc[nH]1)NC(=O)C(Cc1ccccc1)NC(=O)OC(C)(C)C (stereo not drawn) [Example 3, Boc-Phe-His amide of 4-amino-2,8-dimethyl-5-hydroxynonane] |

Same assay, conditions: at 10^-8 M compound; human renin substrate (angiotensinogen), 37° C., pH 6.0

| Inhibition | Structure (SMILES) |
| --- | --- |
| 47% | CC(C)CCC(O)C(CC1CCCCC1)NC(=O)C(Cc1cnc[nH]1)NC(=O)C(Cc1ccccc1)NC(=O)OC(C)(C)C (stereo not drawn) [Example 6C, Boc-Phe-His Amide of 2-Amino-1-cyclohexyl-3-hydroxy-6-methylheptane] |
